The values that follow come from patent publication US11833204B2, “Visible light-activatable nanoparticles for cancer immunotherapy and use thereof” (KOREA INSTITUTE OF SCIENCE AND TECHNOLOGY, priority 2021, dated 2023).

The subject of data set [1] is CT26 cells. Put plainly: Immunogenic cell death: extracellular ATP release. To be noted: CT26, 5 μM, 24 h, +L/−L. The class given is cell-based. Here is the method: (§1) First, CT26 cells were plated in 35 mm cell culture dishes at a density of 1×10^5 cells/dish and doxorubicin (DOX) (5 μM), verteporfin (VPF) (5 μM) or the self-assembled nanoparticles (LT-NPs) (5 μM) were added to each dish. After 24-h culture, one half was exposed by irradiation with visible light using a 671 nm laser at 40 mW for 250 sec (+L) and the other half was not irradiated with visible light for comparison (−L). The immunogenic cell death of the self-assembled nanoparticles (LT-NPs) was evaluated using the cells and the cell culture media.
ATP was analyzed using a commercially available ATP assay kit (Beyotime Biotechnology) according to the manufacturer's protocol.

The test system of data set [2] is CT26 cells. Put plainly: Intracellular behaviour in CT26 cancer cells (confocal microscopy). The class given is cell-based. Here is the method: (§2) The following experiment was conducted to evaluate the intracellular behaviors of the self-assembled nanoparticles (LT-NPs). First, 1×10^5 CT26 cells or H9C2 cells were plated in a 35 mm cell culture dish, treated with the self-assembled nanoparticles (LT-NPs, 5 μM) prepared in Example 1, and cultured for 24 h. Thereafter, cells were washed with Dulbecco's PBS (DPBS), fixed in 4% formaldehyde for 10 min, stained with 4′,6-diamidino-2-phenylindole (DAPI) for 5 min, and analyzed with a Leica TCS SP8 confocal microscope (Leica Microsystems GmbH).

Data set [3] can be described thus: Size analysis of LT-NPs by dynamic light scattering. Format: physicochemical. To be noted: 1 mg/mL in saline, DLS. Here is the method: The self-assembled nanoparticles (LT-NPs) prepared in Example 1 were diluted with saline to a concentration of 1 mg/mL and their particle size was analyzed by dynamic light scattering (DLS; Zetasizer Nano ZS, Malvern Instruments).

The test system of data set [4] is H9C2 cells. Put plainly: Intracellular behaviour in H9C2 cardiomyocytes (confocal microscopy). The class given is cell-based. To be noted: H9C2, 5 μM, 24 h. The protocol: as §2
In data set [5] the test system is CT26 cells. As to the kind of experiment: Immunogenic cell death: extracellular HSP70 and HMGB1 (Western blotting). As to conditions: CT26, 5 μM, 24 h, +L/−L. Format: cell-based. Here is the method: as §1
Before staining the cells with APC-conjugated CRT antibody, culture media were separated from the cells and the extracellular expression levels of HMGB1 and HSP70 were analyzed by Western blotting.
Each cell culture medium was treated with RIPA buffer (Cell Signaling Technology) at 4° C. for 30 min and the protein amount of the lysate was analyzed using a Pierce BCA protein assay kit (Thermo Fisher Scientific) according to the manufacturer's protocol. After SDS-PAGE, proteins were transferred to a PVDF membrane (Bio-Rad), which was then treated with Tris-buffered saline (TBS-T) containing 5% skim milk and 0.1% Tween-20. The membrane was incubated with primary antibodies at 4° C. overnight. HSP70 and HMGB1 antibodies were used as the primary antibodies. The membrane was washed with TBS-T and incubated with a secondary antibody at room temperature for 1 h. The membrane was washed with TBS-T, treated with EZ-Western Lumi Pico or Femto reagent (DoGen), and analyzed using Fusion-Solo software (Vilber) according to the manufacturer's protocol to determine band intensities.
A general note: In western blotting, separated proteins are transferred to a membrane and probed.

Data set [6] relates to CT26 cells. As to the kind of experiment: Apoptosis and necrosis of CT26 cells (Annexin V/PI flow cytometry). To be noted: CT26, visible light. The class given is cell-based. The protocol:
The degrees of apoptosis and necrosis of cancer cells were quantitatively analyzed to accurately evaluate the anticancer effect of the self-assembled nanoparticles (LT-NPs). First, CT26 cells treated with doxorubicin (DOX), verteporfin (VPF), a mixture of doxorubicin and verteporfin (VPF+DOX) or the self-assembled nanoparticles (LT-NPs) and a laser were prepared as above and treated with 5 μg of Annexin V-FITC and 10 μg of PI solution for 10 min. Then, cells were cultured with a cell fixative for 10 min and further cultured with DAPI for 20 min. The degrees of apoptosis and necrosis were quantitatively analyzed using a flow cytometer (BD FACSVerse, BD bioscience, USA).
Background: A flow cytometer gives signals particle by particle.

Turning to `C=CC1=C(C)/C2=C/C3=NC(Cc4[nH]c(c(CCCCC(=O)OC)c4C)CC4N=C(CC1N2)C(C)=C4CCC(=O)N[C@H](Cc1ccccc1)C(=O)N[C@@H](CCCNC(=N)N)C(=O)N[C@H](CCCNC(=N)N)C(=O)NCC(=O)NC1C[C@@H](OC2C[C@](O)(C(=O)CO)Cc4c(O)c5c(c(O)c42)C(=O)c2c(OC)cccc2C5=O)O[C@@H](C)[C@H]1O)[C@@]1(C)C3=CC=C(C(=O)OC)[C@@H]1C(=O)OC` (stereo partly drawn) [LT-NPs, VPF-FRRG(SEQ ID NO: 1)-DOX], the ATP release entry in data set [1] is recorded as “significantly higher”. In data set [2] (CT26, 5 μM, 24 h), the “intracellular cleavage into doxorubicin and verteporfin” value is given as “cleaved specifically to cancer cells”; the presence in cells result is “observed in both cardiomyocytes (H9C2) and cancer cells (CT26)”. Besides, in data set [2] (CT26 treated with cathepsin B inhibitor), the “intracellular degradation with cathepsin B inhibitor” value is “not degraded and remained stable in the cytoplasm”. Besides, the average particle diameter in data set [3] is recorded as 87 nm. For the same compound, in data set [4], the presence in cells entry is “observed in both cardiomyocytes (H9C2) and cancer cells (CT26)”; the “state in normal cells” value is “in a stable state in normal cells”. Moreover, in data set [5], the HMGB-1 release result is “significantly higher” and the HSP70 release result is reported as “significantly higher”. In addition, in data set [6], the “degree of apoptosis (and necrosis)” value is reported as “significantly higher than that caused by the conventional drugs”; the “proportions of early apoptosis, late apoptosis and necrosis” value is “lower proportions of late apoptosis and necrosis and a higher proportion of early apoptosis”. The “degree of apoptosis (and necrosis)” value in data set [6] (listed as self-assembled nanoparticles) was “significantly higher apoptosis and necrosis”.
